{"source": "patent US11274132B2", "about": "“Combined preparations of PKM2 modulators and HMGB1” (Ruprecht-Karls-Universität Heidelberg, priority 2015, dated 2022)", "key": {"[1]": {"test_system": "HCT116 colorectal cancer cells", "test": "Crystal violet cytotoxicity assay", "type": "cell-based", "details": "72 h", "experimental": "(§1) Human colon carcinoma cell lines SW480, HCT116, HT29 and Caco2, the human glioblastoma cell line U251MG and the Natural killer cell line NK-92 Cl were purchased from ATCC. Cell lines were regularly tested for contamination by multiplex PCR performed in the Genomics and Proteomics Core Facility 2 (DKFZ, Heidelberg, Germany). For experiments, cells were cultured for no more than 10 passages. Rho zero cells were generated as described earlier 1. (Gdynia, G. et al. Danger signaling protein HMGB1 induces a distinct form of cell death accompanied by formation of giant mitochondria. Cancer research 70, 8558-8568). Cells used in the experiments were cultured in RPMI (#1640, colon carcinomas, NK cells) or DMEM high glucose (#41965-039, glioblastoma cells) medium. Rho zero cells were generated as described earlier (Gdynia, G. et al. ibd.). Briefly, cells were cultured in RPMI medium (10% FCS, 1% P/S) supplemented with 250 ng/ml ethidiumbromide, 50 μg/ml L-pyruvate and 5 mg/ml uridine over a period of 12 weeks. For cytotoxicity measurements, cells were cultured in 96-well plates, treated with recombinant human HMGB1 protein (Sigma-Aldrich®), glycyrrhizinic acid ((3β, 18α)-30-hydroxy-11, 30-dioxoolean-12-en-3-yl 2-O-β-D-glucopyranuronosyl-β-D-glucopyranosiduronic acid)) (Sigma-Aldrich®), 10 μM (non-toxic) or 100 μM (cytotoxic) P-M2tide (aa sequence: GGAVDDDpYAQFANGG; #BML-P239-0001; Enzo Life Sciences) or 100 μM ML-265 (Cayman Chemical), then cell viability was assessed by crystal violet staining (Gillies, R. J., Didier, N. & Denton, M. Determination of cell number in monolayer cultures. Analytical biochemistry 159, 109-113 (1986)). Malic enzyme 1 knock-down was performed with 40 nM siRNA using lipofectamine in 6-well plates followed by treatment with 80 nM HMGB1 for 72 h. Sequences of siRNA were: ME1, 5′-[…]-3′ and scrambled control 5′-CCUGCAGUACUUCAAGCGGtt-3′. PKM2 siRNA was from Santa Cruz. A nonspecific siRNA served as control (Dharmacon, Schwerte, Germany). For overexpression of PKM2 or ME1, cells were transfected with pCMV-PKM2 (Sino Biological Inc., Beijing, China) or pCMV-ME1 (OriGene, Rockville, Md., USA) using Lipofectamine 2000. For cytotoxicity measurements confluent cells were cultured in 96-well plates if not otherwise indicated. Cytotoxic activity of supernatants from stimulated NK cells was assessed in 96-well plates for 3 days with RPMI medium as reference. Recombinant human HMGB1 (10 ng, Sigma) suited as positive control. For mass isotopomer assays, cells were cultured in glucose- or glutamine-free medium supplemented with either uniformly labeled (U)-13C-D-glucose or U-13C-glutamine (Sigma-Aldrich®)."}, "HT29 cells": {"test_system": "HT29 cells", "test": "Crystal violet cytotoxicity assay", "type": "cell-based", "experimental": "as §1"}, "[2]": {"test_system": "SW480 colorectal cancer cells", "test": "Crystal violet cytotoxicity assay", "type": "cell-based", "details": "72 h", "experimental": "as §1"}, "colorectal cancer cells": {"test_system": "colorectal cancer cells", "test": "Crystal violet cytotoxicity assay, cell lines not given", "type": "cell-based", "details": "HMGB1 80 nM, 72 h", "experimental": "as §1"}, "ATP production": {"test_system": "ATP production", "test": "ATP production calculated from lactate production rates and oxygen consumption", "type": "cell-based, human", "details": "SW480 cells; HMGB1 80 nM, 24 h", "experimental": "(§2) Lactate derived from the metabolism of ^13C6-D-glucose or ^13C5-glutamine was determined by comparing the CH3 group intensities of labeled and non-labeled lactate in NMR. Mitochondrial respiration was measured using an Oroboros 1 oxygraph system. Glycolysis was measured by monitoring the conversion of 5-^3H-Glucose to ^3H2O. Incorporation of ^14C into RNA ribose from U-^14C-labelled glucose was taken as glucose utilization in the pentose phosphate shunt. Enzymatic activities were determined in subcellular fractions as previously described^24.\nFor analysis of ^13C-lactate efflux 1 ml of the cellular supernatant was centrifuged (8,000×g, 10 min, 4° C.) to spin down cellular debris. To 500 μl of the supernatant 10% of D2O were added respectively and transferred to 5 mm NMR sample tubes. The samples were measured with a Bruker AvanceIII 600 NMR spectrometer, equipped with a cryogenically cooled detection probe (QNP-CryoProbe™)."}, "[3]": {"test_system": "glucose flux (glycolysis)", "test": "Glycolysis: conversion of 5-3H-Glucose to 3H2O", "type": "cell-based, human", "details": "HMGB1 80 nM, 24 h", "experimental": "as §2"}, "glucose-6-phosphate": {"test_system": "glucose-6-phosphate", "test": "Glucose-6-phosphate assay kit", "type": "cell-based, human", "details": "HMGB1-treated cells", "experimental": "Glucose-6-phosphate levels in cells were measured using the Glucose-6-phosphate assay kit (Sigma) according to the manufacturer's protocol."}, "PKM2": {"target": "PKM2 (Homo sapiens, UniProt P14618)", "sequence (P14618 whole entry)": "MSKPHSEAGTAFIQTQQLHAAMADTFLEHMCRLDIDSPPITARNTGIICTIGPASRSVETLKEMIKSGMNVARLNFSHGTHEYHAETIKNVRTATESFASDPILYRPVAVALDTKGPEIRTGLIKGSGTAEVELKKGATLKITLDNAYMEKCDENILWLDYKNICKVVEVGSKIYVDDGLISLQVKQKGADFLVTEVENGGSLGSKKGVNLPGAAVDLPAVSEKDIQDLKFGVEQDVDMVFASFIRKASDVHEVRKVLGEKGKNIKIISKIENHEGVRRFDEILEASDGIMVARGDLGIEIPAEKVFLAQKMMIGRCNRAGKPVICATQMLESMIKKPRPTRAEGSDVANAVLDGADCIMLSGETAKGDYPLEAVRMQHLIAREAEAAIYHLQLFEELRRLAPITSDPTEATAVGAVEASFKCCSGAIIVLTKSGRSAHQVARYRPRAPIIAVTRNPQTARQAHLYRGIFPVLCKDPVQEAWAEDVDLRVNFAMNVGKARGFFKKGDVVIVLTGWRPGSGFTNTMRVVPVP", "test": "Ultrafiltration of the PK M2-HMGB1 complex", "type": "binding", "details": "2 μM human PK M2 and 2 μM human HMGB1", "experimental": "Ultrafiltration of the PK M2-HMGB1 complex: equimolar amounts of HMGB1 and PKM2 were mixed in a final volume of 300 μl and filtrated (14000 g, 4° C.) to a final volume of 15 μl in an Amicon Ultra 0.5 ml 30k device (Merck-Millipore, Darmstadt, Germany). The retentate was adjusted to the original volume after centrifugation. Then filtrate and retentate were analyzed by Western Blot. For controls HMGB1 and PKM2 were also analyzed alone. Pure HMGB1 (2 μM) suited as a negative control."}, "[4]": {"details": "NK cell derived HMGB1 approx. 16 nM, recombinant human HMGB1 80 nM"}}, "data": [{"substance": "HMGB1: recombinant human HMGB1 protein (Sigma-Aldrich); High Mobility Group Box 1 polypeptide, human, SEQ ID NO: 4", "values": [{"measurement": "cell death (cytotoxicity)", "setting": "[1]; [4]", "result": "efficiently killed"}, {"measurement": "sensitivity of respiratory chain deficient (ρ0) cells to HMGB1", "setting": "[1]; ρ0 HCT116, HMGB1 160 nM", "result": "almost completely resistant"}, {"measurement": "sensitivity of cells to HMGB1", "setting": "HT29 cells; low to intermediate HMGB1 concentrations (16 to 80 nM)", "result": "resistant"}, {"measurement": "sensitivity towards HMGB1 cytotoxicity after down-regulation of ME1", "setting": "HT29 cells; siRNA knock-down of ME1, HMGB1 80 nM, 72 h", "result": "sensitization"}, {"measurement": "cell death (cytotoxicity)", "setting": "[2]; [4]", "result": "efficiently killed"}, {"measurement": "sensitivity of respiratory chain deficient (ρ0) cells to HMGB1", "setting": "[2]; ρ0 SW480, HMGB1 160 nM", "result": "almost completely resistant"}, {"measurement": "sensitivity of cells to HMGB1 after PKM2 down-regulation (siRNA)", "setting": "colorectal cancer cells", "result": "sensitized"}, {"measurement": "sensitivity of cells to HMGB1 after PKM2 overexpression", "setting": "colorectal cancer cells", "result": "more resistant"}, {"measurement": "decline of ATP production", "setting": "ATP production", "result": "~50", "unit": "%"}, {"measurement": "glucose flux (5-3H-glucose turn-over)", "setting": "[3]", "result": "reduced at the enolase reaction step"}, {"measurement": "glucose-6-phosphate level", "setting": "glucose-6-phosphate", "result": "strong increase"}, {"measurement": "physical interaction with PK M2 in vitro", "setting": "PKM2", "result": "physically interacted"}]}]}
